The record followed here is US20240238424A1, “HETEROBIFUNCTIONAL COMPOUNDS AND METHODS OF TREATING DISEASE” (Halda Therapeutics OpCo, Inc., priority 2021, published 2024).

Common to all, as to type: cell-based
For one test, the target named is T1, GSPT1 (Homo sapiens, UniProt P15170+Q96SW2).
T1 construct: host or cells: HEK293 LgBiT cell line
Description: GSPT1 HiBit degradation assay. The note with it: HEK293 LgBiT cells expressing GSPT1_HiBiT, luminescence after 6 hours. Put shortly: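 HEK293 cells stably expressing LgBiT and GSPT1-HiBiT, seeded 18-24 h before dosing, were treated with titrated compound plus endurazine (0.5× final) at 37 °C. Luminescence loss after 6 h reflects GSPT1 degradation; DC50 is the concentration giving 50% degradation.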
Background: With HiBiT, luminescence reflects the tagged protein that the partner subunit can reach.

Test [1] relates to 293 mutant EGFR_T790M L858R Cells. Description: Cellular growth inhibition assay (CTG), 293 mutant EGFR_T790M L858R cells. The note with it: 293 mutant EGFR T790M L858R cells, CellTiter-Glo 2.0, day-5. Here is the method:
(§1) Cells were seeded in Poly-D-lysine-treated 384-well white plates, with 25 μL cell suspension at 250 cells/well for continuous treatments, and 1000 cells/well for washout treatments. Plates were spun at 300×g for 3 minutes, and cells were cultured at 37° C. with 5% CO2 in a humidified tissue culture incubator.
(§2) After 24 hours, the test compounds were diluted with cell culture medium in 96 deep well plates. DMSO was used as a negative control. A 25 μL aliquot of compound-containing medium was added in each well, at a final top concentration of 10 μM or 30 μM test compound, with 3-fold dilutions. For washout assays, after 4 hours, cell medium with compound was removed, and the cells were washed with 75p L fresh medium. Plates were then spun at 300×g for 3 minutes and replaced with 50 μL fresh medium in each well. Plates were then spun at 300×g for 3 minutes again and cultured at 37° C. with 5% CO2.
(§3) At day-0 and day-5 of compound treatments, cell viability was quantified with CellTiter-Glo 2.0 (Promega). After equilibrating cell plates at room temperature for 30 minutes, 25 μL CellTiter-Glo 2.0 reagent was dispensed into each well (on top of 50 μL of cell culture). Plates were mixed on a shaker for 2 minutes at 500 rpm, followed by a 10-minute incubation at room temperature. Luminescence readings were measured with an EnVision Plate Reader. Data was normalized to DMSO treated day-0 cell wells. A four-parameter non-linear regression curve fit was applied to dose-response data in Prism to determine the half maximal growth inhibitory concentration (GI50) of each compound.

In the next test the test system is HeLa KRas G12C cells. The experiment in a line: Cellular growth inhibition assay (CTG), HeLa KRas G12C cells. The note with it: Homo sapiens, CellTiter-Glo 2.0, day-5. Here is the method:
as §1, §2, §3
(In general: In ATP-based viability assays light output follows the ATP content of the culture.)

T1 sequence (P15170 whole entry): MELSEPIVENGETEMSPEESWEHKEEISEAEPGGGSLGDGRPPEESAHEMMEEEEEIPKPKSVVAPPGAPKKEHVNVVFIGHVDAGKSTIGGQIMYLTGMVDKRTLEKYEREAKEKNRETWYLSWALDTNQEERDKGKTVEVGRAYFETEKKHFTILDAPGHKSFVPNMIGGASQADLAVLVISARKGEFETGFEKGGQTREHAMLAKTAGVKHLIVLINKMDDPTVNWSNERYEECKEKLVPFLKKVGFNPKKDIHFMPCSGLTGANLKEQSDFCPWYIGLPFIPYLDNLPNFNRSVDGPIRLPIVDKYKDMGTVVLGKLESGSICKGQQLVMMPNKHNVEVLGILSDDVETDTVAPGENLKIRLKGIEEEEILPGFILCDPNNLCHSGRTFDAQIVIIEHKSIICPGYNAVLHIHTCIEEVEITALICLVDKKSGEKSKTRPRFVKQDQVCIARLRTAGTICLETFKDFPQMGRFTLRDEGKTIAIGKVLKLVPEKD
T1 sequence (Q96SW2 whole entry): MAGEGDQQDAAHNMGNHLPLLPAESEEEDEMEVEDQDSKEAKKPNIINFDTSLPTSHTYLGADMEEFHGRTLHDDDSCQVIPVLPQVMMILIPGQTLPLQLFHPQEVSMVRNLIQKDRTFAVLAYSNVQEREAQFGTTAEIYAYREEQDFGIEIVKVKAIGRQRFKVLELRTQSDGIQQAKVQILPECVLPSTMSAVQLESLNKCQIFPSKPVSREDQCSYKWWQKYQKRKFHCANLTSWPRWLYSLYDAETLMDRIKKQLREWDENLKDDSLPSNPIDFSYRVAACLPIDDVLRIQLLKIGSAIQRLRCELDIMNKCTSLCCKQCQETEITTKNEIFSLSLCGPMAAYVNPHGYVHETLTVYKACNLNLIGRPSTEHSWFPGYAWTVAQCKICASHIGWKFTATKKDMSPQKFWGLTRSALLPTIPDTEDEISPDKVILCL
T1 sequence (Q16531 whole entry partner): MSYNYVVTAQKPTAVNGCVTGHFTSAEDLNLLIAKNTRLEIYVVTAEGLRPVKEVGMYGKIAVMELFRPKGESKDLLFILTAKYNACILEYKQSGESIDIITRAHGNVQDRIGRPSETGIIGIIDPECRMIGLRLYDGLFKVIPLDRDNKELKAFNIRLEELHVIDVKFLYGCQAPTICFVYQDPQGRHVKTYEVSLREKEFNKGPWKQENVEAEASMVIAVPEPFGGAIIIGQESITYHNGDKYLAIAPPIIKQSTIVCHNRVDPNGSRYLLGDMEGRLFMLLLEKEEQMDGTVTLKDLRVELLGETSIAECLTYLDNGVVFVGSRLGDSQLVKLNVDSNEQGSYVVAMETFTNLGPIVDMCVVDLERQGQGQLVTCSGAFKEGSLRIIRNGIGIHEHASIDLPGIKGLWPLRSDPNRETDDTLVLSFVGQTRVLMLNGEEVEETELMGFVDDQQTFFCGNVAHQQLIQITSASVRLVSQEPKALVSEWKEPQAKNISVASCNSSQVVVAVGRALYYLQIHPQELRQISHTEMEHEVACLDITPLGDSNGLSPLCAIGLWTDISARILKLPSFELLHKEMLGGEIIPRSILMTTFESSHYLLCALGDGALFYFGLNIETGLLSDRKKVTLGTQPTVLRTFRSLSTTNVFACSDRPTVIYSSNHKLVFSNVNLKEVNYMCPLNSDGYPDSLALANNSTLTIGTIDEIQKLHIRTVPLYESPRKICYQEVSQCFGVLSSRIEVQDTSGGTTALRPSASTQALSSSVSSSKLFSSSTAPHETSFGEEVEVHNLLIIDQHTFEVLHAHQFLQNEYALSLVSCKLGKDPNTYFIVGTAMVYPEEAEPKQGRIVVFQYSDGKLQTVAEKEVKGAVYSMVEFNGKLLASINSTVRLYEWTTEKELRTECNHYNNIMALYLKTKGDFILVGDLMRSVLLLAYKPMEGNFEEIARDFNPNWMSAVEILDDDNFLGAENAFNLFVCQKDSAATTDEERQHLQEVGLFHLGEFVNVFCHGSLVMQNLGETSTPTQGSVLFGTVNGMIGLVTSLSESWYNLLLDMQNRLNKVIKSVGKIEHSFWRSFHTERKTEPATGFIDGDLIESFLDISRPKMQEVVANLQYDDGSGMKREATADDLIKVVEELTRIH

Molecule `C=CC(=O)NC1CN(c2nc(Nc3cn(CCOCCOCCOCCOCCOCCCCCc4cc(Cl)cc(NC(=O)NCc5ccc6c(c5)CN(C5CCC(=O)NC5=O)C6=O)c4)nc3OC)c3ncn(C)c3n2)C[C@H]1F` (some centres unmarked) [Compound I-155] had a DC50 at GSPT1 (Table 3A) of under 0.25 µM. For the same molecule, in test [1], the GI50 lay within 0.1 to 1 µM.

Take `COc1nn(C)cc1Nc1nc(N2CC(NC(=O)/C=C/CN(C)CCOCCOCCOCCCCCc3cc(Cl)cc(NC(=O)NCc4ccc5c(c4)CN(C4CCC(=O)NC4=O)C5=O)c3)[C@H](F)C2)nc2c1ncn2C` (some centres unmarked) [Compound I-150]: the DC50 at GSPT1 (Table 3A) was 0.25 to 5 µM. The GI50 in test [1] is 1 to 5 µM.

For `C=C(F)C(=O)N1CCN(c2nc(OC[C@@H]3CCCN3CCOCCOCCOCCOCCOCCOCCOCCOCCOCCOCCOCCOCCc3cc(Cl)cc(NC(=O)NCc4ccc5c(c4)CN(C4CCC(=O)NC4=O)C5=O)c3)nc3c2CCN(c2cccc4cccc(Cl)c24)C3)C[C@@H]1CC#N` (some centres unmarked) [Compound I-37], the DC50 on GSPT1 (Table 3) lay in the range of 0.25 to 5 µM. Moreover, in the test with HeLa KRas G12C cells, the concentration for 50% growth inhibition (GI50) is over 10 µM.

Turning to `C=C(F)C(=O)N1CCN(c2nc(OC[C@@H]3CCCN3CCOCCOCCOCCOCCOCCOCCc3cc(Cl)cc(NC(=O)NCc4ccc5c(c4)CN(C4CCC(=O)NC4=O)C5=O)c3)nc3c2CCN(c2cccc4cccc(Cl)c24)C3)C[C@@H]1CC#N` (stereo partly drawn) [Compound I-2, 1-(3-chloro-5-(20-((S)-2-(((7-(8-chloronaphthalen-1-yl)-4-((S)-3-(cyanomethyl)-4-(2-fluoroacryloyl)piperazin-1-yl)-5,6,7,8-tetrahydropyrido[3,4-d]pyrimidin-2-yl)oxy)methyl)pyrrolidin-1-yl)-3,6,9,12,15,18-hexaoxaicosyl)phenyl)-3-((2-(2,6-dioxopiperidin-3-yl)-1-oxoisoindolin-5-yl)methyl)urea], on GSPT1 (Table 3), the DC50 fell in the range of 5 to 10 µM. Besides, the GI50 in the test with HeLa KRas G12C cells is over 10 µM.

For `C=C(F)C(=O)N1CCN(c2nc(OC[C@@H]3CCCN3CCOCCOCCOCCOCCOCCOCCOCCOCCOCCOCCc3cc(Cl)cc(NC(=O)NCc4ccc5c(c4)CN(C4CCC(=O)NC4=O)C5=O)c3)nc3c2CCN(c2cccc4cccc(Cl)c24)C3)C[C@@H]1CC#N` (stereo partly drawn) [Compound I-12, 1-[3-chloro-5-[2-[2-[2-[2-[2-[2-[2-[2-[2-[2-[2-[(2S)-2-[[7-(8-chloro-1-naphthyl)-4-[(3S)-3-(cyanomethyl)-4-(2-fluoroprop-2-enoyl)piperazin-1-yl]-6,8-dihydro-5H-pyrido[3,4-d]pyrimidin-2-yl]oxymethyl]pyrrolidin-1-yl]ethoxy]ethoxy]ethoxy]ethoxy]ethoxy]ethoxy]ethoxy]ethoxy]ethoxy]ethoxy]ethyl]phenyl]-3-[[2-(2,6-dioxo-3-piperidyl)-1-oxo-isoindolin-5-yl]methyl]urea], the half-maximal degradation concentration (DC50) at GSPT1 (Table 3) was 5 to 10 µM. The molecule further returned a GI50 with HeLa KRas G12C cells of 3 to 10 µM.

Molecule `C=C(F)C(=O)N1CCN(c2nc(OC[C@@H]3CCCN3CCOCCOCCOCCOCCOCCOCCOCCOCCOCCOCCOCCOCCOc3cc(Cl)cc(NC(=O)NCc4ccc5c(c4)CN(C4CCC(=O)NC4=O)C5=O)c3)nc3c2CCN(c2cccc4cccc(Cl)c24)C3)C[C@@H]1CC#N` (some centres unmarked) [Compound I-42] returned a DC50 at GSPT1 (Table 3) of over 10 µM. This molecule also displayed a GI50 in the test on HeLa KRas G12C cells of over 10 µM.

Take `C=CC(=O)N1CCN(c2nc(NCCOCCOCCOCCOCCOCCOCCOCCOCCOCCOCCOc3cc(Cl)cc(NC(=O)NCc4ccc5c(c4)CN(C4CCC(=O)NC4=O)C5=O)c3)nc3c(F)c(-c4cc(O)cc5ccccc45)c(Cl)cc23)CC1` (centres unmarked) [Compound I-14, 1-[3-chloro-5-[2-[2-[2-[2-[2-[2-[2-[2-[2-[2-[2-[[6-chloro-8-fluoro-7-(3-hydroxy-1-naphthyl)-4-(4-prop-2-enoylpiperazin-1-yl)quinazolin-2-yl]amino]ethoxy]ethoxy]ethoxy]ethoxy]ethoxy]ethoxy]ethoxy]ethoxy]ethoxy]ethoxy]ethoxy]phenyl]-3-[[2-(2,6-dioxo-3-piperidyl)-1-oxo-isoindolin-5-yl]methyl]urea]: the DC50 at GSPT1 (Table 3) was over 10 µM. Besides, the GI50 with HeLa KRas G12C cells was over 10 µM.

The molecule `C=CC(=O)N1CCN(c2nc(NCCOCCOCCOCCOCCOCCOCCOCCOCCc3cc(Cl)cc(NC(=O)NCc4ccc5c(c4)CN(C4CCC(=O)NC4=O)C5=O)c3)nc3c(F)c(-c4cc(O)cc5ccccc45)c(Cl)cc23)CC1` (centres unmarked) [Compound I-15, 1-[3-chloro-5-[2-[2-[2-[2-[2-[2-[2-[2-[2-[[6-chloro-8-fluoro-7-(3-hydroxy-1-naphthyl)-4-(4-prop-2-enoylpiperazin-1-yl)quinazolin-2-yl]amino]ethoxy]ethoxy]ethoxy]ethoxy]ethoxy]ethoxy]ethoxy]ethoxy]ethyl]phenyl]-3-[[2-(2,6-dioxo-3-piperidyl)-1-oxo-isoindolin-5-yl]methyl]urea] yielded a DC50 at GSPT1 (Table 3) of over 10 µM. Besides, in the test on HeLa KRas G12C cells, the GI50 is over 10 µM.

Regarding `C=C(F)C(=O)N1CCN(c2nc(OC[C@@H]3CCCN3CCCCCCCCNc3cccc4c3CN(C3CCC(=O)NC3=O)C4=O)nc3c2CCN(c2cccc4cccc(Cl)c24)C3)C[C@@H]1CC#N` (stereo partly drawn) [Compound I-3, 2-((2S)-4-(7-(8-chloronaphthalen-1-yl)-2-(((2S)-1-(8-((2-(2,6-dioxopiperidin-3-yl)-1-oxoisoindolin-4-yl)amino)octyl)pyrrolidin-2-yl)methoxy)-5,6,7,8-tetrahydropyrido[3,4-d]pyrimidin-4-yl)-1-(2-fluoroacryloyl)piperazin-2-yl)acetonitrile], the DC50 at GSPT1 (Table 3) is over 10 µM. The molecule further had a GI50 with HeLa KRas G12C cells of 3 to 10 µM.

Take `C=C(F)C(=O)N1CCN(c2nc(OC[C@@H]3CCCN3CCCCCCCCc3cccc4c3CN(C3CCC(=O)NC3=O)C4=O)nc3c2CCN(c2cccc4cccc(Cl)c24)C3)C[C@@H]1CC#N` (stereo partly drawn) [Compound I-4, 2-[(2S)-4-[7-(8-chloro-1-naphthyl)-2-[[(2S)-1-[8-[2-(2,6-dioxo-3-piperidyl)-1-oxo-isoindolin-4-yl]octyl]pyrrolidin-2-yl]methoxy]-6,8-dihydro-5H-pyrido[3,4-d]pyrimidin-4-yl]-1-(2-fluoroprop-2-enoyl)piperazin-2-yl]acetonitrile]: the DC50 on GSPT1 (Table 3) was over 10 µM. For the same molecule, in the test on HeLa KRas G12C cells, the GI50 lay within 3 to 10 µM.

On GSPT1 (Table 3), `C=C(F)C(=O)N1CCN(c2nc(OC[C@@H]3CCCN3CCOCCOCCOCCOCCOCCOCCOCCOCCOCCOCCOCCOCCOCCOCCCCCCCCc3cc(Cl)cc(NC(=O)NCc4ccc5c(c4)CN(C4CCC(=O)NC4=O)C5=O)c3)nc3c2CCN(c2cccc4cccc(Cl)c24)C3)C[C@@H]1CC#N` (some centres unmarked) [Compound I-47] came in with a 50% degradation concentration (DC50) of under 0.25 µM. This molecule registered a GI50 in the test with HeLa KRas G12C cells of under 1 µM.

As for `C=C(F)C(=O)N1CCN(c2nc(OC[C@@H]3CCCN3CCCOCCOCCOCCOCCOCCOCCOCCOCCOCCCCCc3ccc(Cl)cc3NC(=O)NCc3ccc4c(c3)CN(C3CCC(=O)NC3=O)C4=O)nc3c2CCN(c2cccc4cccc(Cl)c24)C3)C[C@@H]1CC#N` (some centres unmarked) [Compound I-134], the DC50 at GSPT1 (Table 3A) lay within 0.25 to 5 µM. In the test on HeLa KRas G12C cells, this molecule showed a GI50 of 3 to 10 µM.

As to `C=C(F)C(=O)N1CCN(c2nc(OC[C@@H]3CCCN3CCOCCOCCOCCOCCOCCOCCOCCOCCOCCOCCOc3cc(Cl)cc(NC(=O)NCc4ccc5c(c4)CN(C4CCC(=O)NC4=O)C5=O)c3)nc3c2CCN(c2cccc4cccc(Cl)c24)C3)C[C@@H]1CC#N` (stereo partly drawn) [Compound I-10, 1-[3-chloro-5-[2-[2-[2-[2-[2-[2-[2-[2-[2-[2-[2-[(2S)-2-[[7-(8-chloro-1-naphthyl)-4-[(3S)-3-(cyanomethyl)-4-(2-fluoroprop-2-enoyl)piperazin-1-yl]-6,8-dihydro-5H-pyrido[3,4-d]pyrimidin-2-yl]oxymethyl]pyrrolidin-1-yl]ethoxy]ethoxy]ethoxy]ethoxy]ethoxy]ethoxy]ethoxy]ethoxy]ethoxy]ethoxy]ethoxy]phenyl]-3-[[2-(2,6-dioxo-3-piperidyl)-1-oxo-isoindolin-5-yl]methyl]urea], on GSPT1 (Table 3), the DC50 lay in the range of 5 to 10 µM. This molecule displayed a GI50 with HeLa KRas G12C cells of 3 to 10 µM.

`C=C(F)C(=O)N1CCN(c2nc(OC[C@@H]3CCCN3CCCOCCOCCOCCOCCOCCCCCc3cccc(NC(=O)NCc4ccc5c(c4)CN(C4CCC(=O)NC4=O)C5=O)n3)nc3c2CCN(c2cccc4cccc(Cl)c24)C3)C[C@@H]1CC#N` (some centres unmarked) [Compound I-152] registered a DC50 on GSPT1 (Table 3A) of over 10 µM. For the same molecule, the GI50 with HeLa KRas G12C cells lay in the range of 3 to 10 µM.

The molecule `C=CC(=O)N1CCN(c2nc(NCCC(=O)N(C)CCOCCOCCOCCOCCOCCOCCc3cc(Cl)cc(NC(=O)NCc4ccc5c(c4)CN(C4CCC(=O)NC4=O)C5=O)c3)nc3c(F)c(-c4cc(O)cc5ccccc45)c(Cl)cc23)CC1` (centres unmarked) [Compound I-17] yielded a DC50 at GSPT1 (Table 3) of over 10 µM. Also, the GI50 in the test on HeLa KRas G12C cells was over 10 µM.

As to `C=C(F)C(=O)N1CCN(c2nc(OC[C@@H]3CCCN3CCOCCOCCOCCOCCOCCOCCOCCOCCCCCCCCCCCCCCc3cc(Cl)cc(NC(=O)NCc4ccc5c(c4)CN(C4CCC(=O)NC4=O)C5=O)c3)nc3c2CCN(c2cccc4cccc(Cl)c24)C3)C[C@@H]1CC#N` (some centres unmarked) [Compound I-51], on GSPT1 (Table 3), the DC50 was in the range of 0.25 to 5 µM. The GI50 in the test with HeLa KRas G12C cells is under 1 µM.

In general, DC50 refers to the concentration giving 50% degradation. A low value points to a more potent degrader. The GI50 is the concentration that inhibits growth by half. The low end stands for more potent growth inhibition, the high end for less potent growth inhibition.
